Data taken from article PMC10448230 (RSC Advances, 2023).
Read-outs that look alike come from different tables or passages of the source.

Experiments:
[1] = target: electric eel acetylcholinesterase (type-IV-S) (Electrophorus electricus, UniProt O42275); test: biochemical; assay type: biochemical
[2] = target: equine butyrylcholinesterase (Equus caballus, UniProt P81908); test: Butyrylcholinesterase inhibition; assay type: biochemical
equine butyrylcholinesterase, sequence (P81908 whole entry): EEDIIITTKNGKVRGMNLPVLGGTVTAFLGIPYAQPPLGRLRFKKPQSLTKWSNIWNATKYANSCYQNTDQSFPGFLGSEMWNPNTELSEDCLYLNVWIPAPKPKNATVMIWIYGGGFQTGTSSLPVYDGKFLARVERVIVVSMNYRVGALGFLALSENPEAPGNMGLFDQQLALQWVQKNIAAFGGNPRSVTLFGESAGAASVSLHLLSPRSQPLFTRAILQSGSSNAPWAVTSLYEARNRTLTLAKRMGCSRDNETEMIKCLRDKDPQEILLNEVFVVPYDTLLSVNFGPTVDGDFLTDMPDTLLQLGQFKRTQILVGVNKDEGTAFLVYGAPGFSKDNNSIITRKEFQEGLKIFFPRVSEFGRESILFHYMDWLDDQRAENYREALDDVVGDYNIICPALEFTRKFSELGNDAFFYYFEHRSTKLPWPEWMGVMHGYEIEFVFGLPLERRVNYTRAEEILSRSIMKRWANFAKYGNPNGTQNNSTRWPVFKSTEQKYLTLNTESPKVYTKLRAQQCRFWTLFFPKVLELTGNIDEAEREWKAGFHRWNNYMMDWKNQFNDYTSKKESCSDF

electric eel acetylcholinesterase (type-IV-S), sequence (O42275 24-633): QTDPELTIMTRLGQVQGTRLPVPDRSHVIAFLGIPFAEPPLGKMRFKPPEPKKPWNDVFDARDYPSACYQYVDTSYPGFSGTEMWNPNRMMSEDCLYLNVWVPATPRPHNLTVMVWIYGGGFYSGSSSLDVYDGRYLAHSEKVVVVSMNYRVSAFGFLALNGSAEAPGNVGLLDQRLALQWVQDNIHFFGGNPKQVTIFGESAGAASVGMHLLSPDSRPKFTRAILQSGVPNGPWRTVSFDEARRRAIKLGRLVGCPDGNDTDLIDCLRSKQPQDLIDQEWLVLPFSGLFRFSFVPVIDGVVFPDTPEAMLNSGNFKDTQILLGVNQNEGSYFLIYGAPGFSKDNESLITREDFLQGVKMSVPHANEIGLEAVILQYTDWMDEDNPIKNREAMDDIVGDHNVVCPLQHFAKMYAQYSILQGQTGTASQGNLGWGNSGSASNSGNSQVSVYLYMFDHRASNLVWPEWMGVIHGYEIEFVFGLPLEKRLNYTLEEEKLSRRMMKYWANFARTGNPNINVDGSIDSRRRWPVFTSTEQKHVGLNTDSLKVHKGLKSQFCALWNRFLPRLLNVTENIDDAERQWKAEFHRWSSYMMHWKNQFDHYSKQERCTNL

2,2′-((Thiobis(4,1-phenylene))bis(oxy))bis(N′-((E)-4-fluorobenzylidene)acetohydrazide) [4s]
IC50 ([1]; read-out: AChE IC50 (μM) ± SD, NA = not active, galantamine as positive control): 91.5 ± 0.615 µM
IC50 ([2]; read-out: BChE IC50 (μM) ± SD, NA = not active, galantamine as positive control): 36.4 ± 0.702 µM

CCCC/C=N/NC(=O)COc1ccc(Sc2ccc(OCC(=O)N/N=C/CCCC)cc2)cc1 [4x, 2,2′-((Thiobis(4,1-phenylene))bis(oxy))bis(N′-((E)-pentylidene)acetohydrazide)]
IC50 [1]: 186.3 ± 0.876 µM
IC50 [2]: 103.1 ± 0.877 µM

CCC/C=N/NC(=O)COc1ccc(Sc2ccc(OCC(=O)N/N=C/CCC)cc2)cc1 [4y, 2,2′-((Thiobis(4,1-phenylene))bis(oxy))bis(N′-((E)-butylidene)acetohydrazide)]
IC50 [1]: 122.6 ± 0.943 µM
IC50 [2]: 101.1 ± 0.938 µM
